Test results from patent publication US5378836A, “Rapamycin oximes and hydrazones” (American Home Products Corporation, priority 1993, dated 1995).
Counter-ions that a name gives are not always drawn. Like-named read-outs stand apart in the source and are kept apart here.

Key:
[1] = system: thymocytes (T-cell proliferation); test: comitogen-induced thymocyte proliferation procedure (LAF); format: cell-based, BALB/c mice; conditions: Mus musculus; for inhibition at 0.1 µM: T-cell, read-out: LAF % Inhib. (percent inhibition of T-cell proliferation); for IC50: Thymocyte, read-out: LAF IC50
Method: (§1) Immunosuppressive activity for representative compounds of this invention was evaluated in an in vitro standard pharmacological test procedure to measure lymphocyte proliferation (LAF) and in an in vivo standard pharmacological test procedure which evaluated the survival time of a pinch skin graft.
The comitogen-induced thymocyte proliferation procedure (LAF) was used as an in vitro measure of the immunosuppressive effects of representative compounds. Briefly, cells from the thymus of normal BALB/c mice are cultured for 72 hours with PHA and IL-1 and pulsed with tritiated thymidine during the last six hours. Cells are cultured with and without various concentrations of rapamycin, cyclosporin A, or test compound. Cells are harvested and incorporated radioactivity is determined. Inhibition of lymphoproliferation is assessed as percent change in counts per minute from non-drug treated controls. For each compound evaluated, rapamycin was also evaluated for the purpose of comparison. An IC50 was obtained for each test compound as well as for rapamycin.

[2] = system: pinch skin graft from male BAB/c donors transplanted to male C3 H(H-2K) recipients; test: survival time of a pinch skin graft; format: in vivo, male C3 H(H-2K) recipients (mouse strain); conditions: dose of 4 mg/kg, intraperitoneally or orally; untreated control usually rejected within 6-7 days
Method: as §1
Representative compounds of this invention were also evaluated in an in vivo test procedure designed to determine the survival time of pinch skin graft from male BAB/c donors transplanted to male C3 H(H-2K) recipients. The method is adapted from Billingham R. E. and Medawar P. B., J. Exp. Biol. 28:385-402, (1951). Briefly, a pinch skin graft from the donor was grafted on the dorsum of the recipient as a allograft, and an isograft was used as control in the same region. The recipients were treated with either varying concentrations of test compounds intraperitoneally or orally. Rapamycin was used as a test control. Untreated recipients serve as rejection control. The graft was monitored daily and observations were recorded until the graft became dry and formed a blackened scab. This was considered as the rejection day. The mean graft survival time (number of days±S.D.) of the drug treatment group was compared with the control group. […] Results are expressed as the mean survival time in days. Untreated (control) pinch skin grafts are usually rejected within 6-7 days. The results shown in Table 1 are based on a dose of 4 mg/kg of test compound. A survival time of 12.0±1.7 days was obtained for rapamycin at 4 mg/kg.

[3] = system: experimental allergic encephalomyelitis model; conditions: a model for multiple sclerosis; cited from earlier work
[4] = system: Candida albicans; conditions: both in vitro and in vivo; cited from earlier work
[5] = alone or in combination with picibanil; cited from earlier work
[6] = system: IgE-like antibodies; conditions: in vivo; cited from earlier work
[7] = thymus cells cultured 72 h with PHA and IL-1, tritiated thymidine during last six hours

CO[C@H]1C[C@@H]2CC[C@@H](C)[C@@](O)(O2)C(=O)C(=O)N2CCCC[C@H]2C(=O)O[C@H]([C@H](C)C[C@@H]2CC[C@@H](OC(=O)NCCc3ccccn3)[C@H](OC)C2)CC(=NO)[C@H](C)/C=C(\C)[C@@H](O)[C@@H](OC)C(=O)[C@H](C)C[C@H](C)/C=C/C=C/C=C/1C [Example 2, Rapamycin 27-oxime, 42-ester with 2-(pyridin-2-yl)-ethyl-carbamic acid]
inhibition at 0.1 µM [1]: 94% | IC50 [1, 7]: 0.0006 µM | Skin Graft mean survival time (days ± SD) [2]: 8.0 ± 0.6 days

CO[C@H]1C[C@@H]2CC[C@@H](C)[C@@](O)(O2)C(=O)C(=O)N2CCCC[C@H]2C(=O)O[C@H]([C@H](C)C[C@@H]2CC[C@@H](OC(=O)NCCO)[C@H](OC)C2)CC(=NO)[C@H](C)/C=C(\C)[C@@H](O)[C@@H](OC)C(=O)[C@H](C)C[C@H](C)/C=C/C=C/C=C/1C [Example 4, Rapamycin 27-oxime, 42-ester with 2-hydroxyethyl carbamic acid]
inhibition at 0.1 µM [1]: 89% | IC50 [1, 7]: 0.0178 µM

CO[C@H]1C[C@@H]2CC[C@@H](C)[C@@](O)(O2)C(=O)C(=O)N2CCCC[C@H]2C(=O)O[C@H]([C@H](C)C[C@@H]2CC[C@@H](OS(=O)(=O)O)[C@H](OC)C2)CC(=NO)[C@H](C)/C=C(\C)[C@@H](O)[C@@H](OC)C(=O)[C@H](C)C[C@H](C)/C=C/C=C/C=C/1C [Example 6, Rapamycin 27-oxime, 42-sulfate ester pyridine salt]
inhibition at 0.1 µM [1]: 71% | Skin Graft mean survival time (days ± SD) [2]: 9.8 ± 0.4 days

CO[C@H]1C[C@@H]2CC[C@@H](C)[C@@](O)(O2)C(=O)C(=O)N2CCCC[C@H]2C(=O)O[C@H]([C@H](C)C[C@@H]2CC[C@@H](OC(N)=O)[C@H](OC)C2)CC(=NO)[C@H](C)/C=C(\C)[C@@H](O)[C@@H](OC)C(=O)[C@H](C)C[C@H](C)/C=C/C=C/C=C/1C [Example 8, Rapamycin 27-oxime, 42-ester with carbamic acid]
inhibition at 0.1 µM [1]: 87% | IC50 [1, 7]: 0.0139 µM | Skin Graft mean survival time (days ± SD) [2]: 7.0 ± 0.0 days

CO[C@H]1C[C@@H]2CC[C@@H](C)[C@@](O)(O2)C(=O)C(=O)N2CCCC[C@H]2C(=O)O[C@H]([C@H](C)C[C@@H]2CC[C@@H](OS(=O)(=O)c3cccc4cccnc34)[C@H](OC)C2)CC(=NO)[C@H](C)/C=C(\C)[C@@H](O)[C@@H](OC)C(=O)[C@H](C)C[C@H](C)/C=C/C=C/C=C/1C [Example 10, Rapamycin 27-oxime, 42-ester with 8-quinolinesulfonic acid]
inhibition at 0.1 µM [1]: 20% | IC50 [1, 7]: 0.3 µM

CO/N=C1\C[C@@H]([C@H](C)C[C@@H]2CC[C@@H](OS(=O)(=O)c3cccc4cccnc34)[C@H](OC)C2)OC(=O)[C@@H]2CCCCN2C(=O)C(=O)[C@]2(O)O[C@@H](CC[C@H]2C)C[C@H](OC)/C(C)=C/C=C/C=C/[C@@H](C)C[C@@H](C)C(=O)[C@H](OC)[C@H](O)/C(C)=C/[C@H]1C [Example 11, Rapamycin (E)-27-O-(methyl)oxime, 42-ester with 8-quinolinesulfonic acid]
inhibition at 0.1 µM [1]: 17% | IC50 [1, 7]: 0.255 µM

CO/N=C1/C[C@@H]([C@H](C)C[C@@H]2CC[C@@H](OS(=O)(=O)c3cccc4cccnc34)[C@H](OC)C2)OC(=O)[C@@H]2CCCCN2C(=O)C(=O)[C@]2(O)O[C@@H](CC[C@H]2C)C[C@H](OC)/C(C)=C/C=C/C=C/[C@@H](C)C[C@@H](C)C(=O)[C@H](OC)[C@H](O)/C(C)=C/[C@H]1C [Example 12, Rapamycin (Z)-27-O-(methyl)oxime, 42-ester with 8-quinolinesulfonic acid]
inhibition at 0.1 µM [1]: 30% | IC50 [1, 7]: 0.21 µM

CO/N=C1/C[C@@H]([C@H](C)C[C@@H]2CC[C@@H](OC(=O)Nc3ccc([N+](=O)[O-])cc3)[C@H](OC)C2)OC(=O)[C@@H]2CCCCN2C(=O)C(=O)[C@]2(O)O[C@@H](CC[C@H]2C)C[C@H](OC)/C(C)=C/C=C/C=C/[C@@H](C)C[C@@H](C)C(=O)[C@H](OC)[C@H](O)/C(C)=C/[C@H]1C [Example 13, Rapamycin (Z)-27-O-(methyl)oxime, 42-ester with 4-nitrophenylcarbamic acid]
inhibition at 0.1 µM [1]: 14% | IC50 [1, 7]: 0.58 µM

CO/N=C1/C[C@@H]([C@H](C)C[C@@H]2CC[C@@H](OS(=O)(=O)c3ccc(C)cc3)[C@H](OC)C2)OC(=O)[C@@H]2CCCCN2C(=O)C(=O)[C@]2(O)O[C@@H](CC[C@H]2C)C[C@H](OC)/C(C)=C/C=C/C=C/[C@@H](C)C[C@@H](C)C(=O)[C@H](OC)[C@H](O)/C(C)=C/[C@H]1C [Example 14, Rapamycin (Z)-27-O-(methyl)oxime, 42-ester with 4-methylbenzenesulfonic acid]
inhibition at 0.1 µM [1]: 20% | IC50 [1, 7]: > 1 µM

CCOC(C)O[C@@H]1CC[C@@H](C[C@@H](C)[C@@H]2C/C(=N/OC)[C@H](C)/C=C(\C)[C@@H](O)[C@@H](OC)C(=O)[C@H](C)C[C@H](C)/C=C/C=C/C=C(\C)[C@@H](OC)C[C@@H]3CC[C@@H](C)[C@@](O)(O3)C(=O)C(=O)N3CCCC[C@H]3C(=O)O2)C[C@H]1OC (stereo partly drawn) [Example 16, 42-O-(1-Ethoxy-ethyl)-rapamycin-(Z)-27-O-(methyl)oxime]
inhibition at 0.1 µM [1]: 47% | IC50 [1, 7]: 0.1 µM

CCOC(C)O[C@@H]1CC[C@@H](C[C@@H](C)[C@@H]2C/C(=N\OC)[C@H](C)/C=C(\C)[C@@H](O)[C@@H](OC)C(=O)[C@H](C)C[C@H](C)/C=C/C=C/C=C(\C)[C@@H](OC)C[C@@H]3CC[C@@H](C)[C@@](O)(O3)C(=O)C(=O)N3CCCC[C@H]3C(=O)O2)C[C@H]1OC (stereo partly drawn) [Example 17, 42-O-(1-Ethoxy-ethyl)-rapamycin-(E)-27-O-(methyl)oxime]
inhibition at 0.1 µM [1]: 73% | IC50 [1, 7]: 0.03 µM | Skin Graft mean survival time (days ± SD) [2]: 7.8 ± 0.4 days

CCCCNC(=O)O[C@@H]1CC[C@@H](C[C@@H](C)[C@@H]2C/C(=N/OC)[C@H](C)/C=C(\C)[C@@H](O)[C@@H](OC)C(=O)[C@H](C)C[C@H](C)/C=C/C=C/C=C(\C)[C@@H](OC)C[C@@H]3CC[C@@H](C)[C@@](O)(O3)C(=O)C(=O)N3CCCC[C@H]3C(=O)O2)C[C@H]1OC [Example 18, Rapamycin (Z)-27-O-(methyl)oxime-42-ester with butylcarbamic acid]
inhibition at 0.1 µM [1]: 18% | IC50 [1, 7]: 0.279 µM

CO[C@H]1C[C@@H]2CC[C@@H](C)[C@@](O)(O2)C(=O)C(=O)N2CCCC[C@H]2C(=O)O[C@H]([C@H](C)C[C@@H]2CC[C@@H](O)[C@H](OC)C2)CC(=O)[C@H](C)/C=C(\C)[C@@H](O)[C@@H](OC)C(=O)[C@H](C)C[C@H](C)/C=C/C=C/C=C/1C [rapamycin]
IC50 [1]: 0.0004 to 0.0098 µM | effect in the experimental allergic encephalomyelitis model [3]: effective in the experimental allergic encephalomyelitis model | antifungal activity, particularly against Candida albicans [4]: found to have antifungal activity, particularly against Candida albicans, both in vitro and in vivo | antitumor activity [5]: has been shown to have antitumor activity | inhibition of the formation of IgE-like antibodies [6]: effectively inhibited the formation of IgE-like antibodies | Skin Graft mean survival time (days ± SD) [2]: 12.0 ± 1.7 days
